# In article PMC6364417, “Kinase inhibitor library screening identifies synergistic drug combinations effective in sensitive and resistant melanoma cells” (Journal of Experimental & Clinical Cancer Research : CR, 2019):
# How the values were obtained:
# Assay in all cases: Kinase inhibitor library screening, PrestoBlue cell viability, 1 or 10 μM, 72 h
# [1] = system: 501Mel cells (parental); conditions: 501Mel Parental, 72 h, in %
# How it was run: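 Two concentrations of every kinase inhibitor were tested on each melanoma line and its resistant counterparts, and cell survival was quantified by PrestoBlue against untreated wells.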
# [2] = system: 501Mel-GP cells (Dabrafenib-resistant); conditions: 501Mel GP, 72 h, in %
# [3] = system: 501Mel-XP cells (Vemurafenib-resistant); conditions: 501Mel XP, 72 h, in %
# [4] = system: A375 cells (parental); conditions: A375 Parental, 72 h
# [5] = system: A375-GP cells (Dabrafenib-resistant); conditions: A375 GP, 72 h; for cell viability, A375 GP, 1μΜ / cell viability, A375 GP, 10μΜ: in %
# [6] = system: A375-XP cells (Vemurafenib-resistant); conditions: A375 XP, 72 h; for cell viability, A375 XP, 1μΜ / cell viability, A375 XP, 10μΜ: in %
# [7] = system: IGR37 cells (parental); conditions: IGR37 Parental, 72 h, in %
# [8] = system: IGR37-GP cells (Dabrafenib-resistant); conditions: IGR37 GP, 72 h
# [9] = system: IGR37-XP cells (Vemurafenib-resistant); conditions: IGR37 XP, 72 h
structure (smiles),measurement,setting,value
CC(=O)Nc1cccc(-n2c(=O)n(C3CC3)c(=O)c3c(Nc4ccc(I)cc4F)n(C)c(=O)c(C)c32)c1 [GSK1120212 (Trametinib)],"cell viability, 501Mel Parental, 1μΜ",[1]; 1μΜ,55.4
same,"cell viability, 501Mel Parental, 10μΜ",[1]; 10μΜ,64.9
same,"cell viability, 501Mel GP, 1μΜ",[2]; 1μΜ,90.4
same,"cell viability, 501Mel GP, 10μΜ",[2]; 10μΜ,77.4
same,"cell viability, 501Mel XP, 1μΜ",[3]; 1μΜ,75.6
same,"cell viability, 501Mel XP, 10μΜ",[3]; 10μΜ,62.1
same,"cell viability, A375 Parental, 1μΜ","[4]; 1μΜ, in %",21.7
same,"cell viability, A375 Parental, 10μΜ","[4]; 10μΜ, in %",21.8
same,"cell viability, A375 GP, 1μΜ",[5]; 1μΜ,18.8
same,"cell viability, A375 GP, 10μΜ",[5]; 10μΜ,16.2
same,"cell viability, A375 XP, 1μΜ",[6]; 1μΜ,14.9
same,"cell viability, A375 XP, 10μΜ",[6]; 10μΜ,14.6
same,"cell viability, IGR37 Parental, 1μΜ",[7]; 1μΜ,37.2
same,"cell viability, IGR37 Parental, 10μΜ",[7]; 10μΜ,36.1
same,"cell viability, IGR37 GP, 10μΜ",[8]; 10μΜ,56.9%
same,"cell viability, IGR37 GP, 1μΜ","[8]; 1μΜ, in %",89.3
same,"cell viability, IGR37 XP, 10μΜ",[9]; 10μΜ,22.1%
same,"cell viability, IGR37 XP, 1μΜ","[9]; 1μΜ, in %",38.3
CCc1cc(Nc2nccc(-c3c(-c4ccc(OC)c(C(=O)Nc5c(F)cccc5F)c4)nc4ccccn34)n2)c(OC)cc1N1CCC(N2CCN(S(C)(=O)=O)CC2)CC1 [GSK1904529A],"cell viability, 501Mel Parental, 1μΜ",[1]; 1μΜ,99.4
same,"cell viability, 501Mel Parental, 10μΜ",[1]; 10μΜ,98.3
same,"cell viability, 501Mel GP, 1μΜ",[2]; 1μΜ,109.2
same,"cell viability, 501Mel GP, 10μΜ",[2]; 10μΜ,89.5
same,"cell viability, 501Mel XP, 1μΜ",[3]; 1μΜ,93.0
same,"cell viability, 501Mel XP, 10μΜ",[3]; 10μΜ,82.3
same,"cell viability, A375 Parental, 10μΜ","[4]; 10μΜ, in %",94.0
same,"cell viability, A375 GP, 1μΜ",[5]; 1μΜ,98.4
same,"cell viability, A375 GP, 10μΜ",[5]; 10μΜ,92.6
same,"cell viability, A375 XP, 1μΜ",[6]; 1μΜ,104.6
same,"cell viability, A375 XP, 10μΜ",[6]; 10μΜ,97.7
same,"cell viability, IGR37 Parental, 1μΜ",[7]; 1μΜ,114.5
same,"cell viability, IGR37 Parental, 10μΜ",[7]; 10μΜ,96.7
same,"cell viability, IGR37 GP, 10μΜ",[8]; 10μΜ,62.6%
same,"cell viability, IGR37 GP, 1μΜ","[8]; 1μΜ, in %",98.3
same,"cell viability, IGR37 XP, 10μΜ",[9]; 10μΜ,20.4%
same,"cell viability, IGR37 XP, 1μΜ","[9]; 1μΜ, in %",98.9
COc1ncc(-c2ccc3nccc(-c4ccnnc4)c3c2)cc1NS(=O)(=O)c1ccc(F)cc1F [GSK2126458],"Cell viability in kinase inhibitor library screening, 501Mel Parental, 1μΜ",[1]; 1μΜ,3.1
same,"Cell viability in kinase inhibitor library screening, 501Mel Parental, 10μΜ",[1]; 10μΜ,0.9
same,"Cell viability in kinase inhibitor library screening, 501Mel GP, 1μΜ",[2]; 1μΜ,6.0
same,"Cell viability in kinase inhibitor library screening, 501Mel GP, 10μΜ",[2]; 10μΜ,0.6
same,"Cell viability in kinase inhibitor library screening, 501Mel XP, 1μΜ",[3]; 1μΜ,2.1
same,"Cell viability in kinase inhibitor library screening, 501Mel XP, 10μΜ",[3]; 10μΜ,0.8
same,"Cell viability in kinase inhibitor library screening, A375 Parental, 10μΜ",[4]; 10μΜ,3.2
same,"Cell viability in kinase inhibitor library screening, A375 Parental, 1μΜ",[4]; 1μΜ,15.7
same,"Cell viability in kinase inhibitor library screening, A375 GP, 1μΜ",[5]; 1μΜ,14.4
same,"Cell viability in kinase inhibitor library screening, A375 GP, 10μΜ",[5]; 10μΜ,3.9
same,"Cell viability in kinase inhibitor library screening, A375 XP, 1μΜ",[6]; 1μΜ,13.7
same,"Cell viability in kinase inhibitor library screening, A375 XP, 10μΜ",[6]; 10μΜ,2.8
same,"Cell viability in kinase inhibitor library screening, IGR37 Parental, 1μΜ",[7]; 1μΜ,7.2
same,"Cell viability in kinase inhibitor library screening, IGR37 Parental, 10μΜ",[7]; 10μΜ,0.469
same,"Cell viability in kinase inhibitor library screening, IGR37 GP, 10μΜ",[8]; 10μΜ,2.7%
same,"Cell viability in kinase inhibitor library screening, IGR37 GP, 1μΜ","[8]; 1μΜ, in %",9.1
same,"Cell viability in kinase inhibitor library screening, IGR37 XP, 10μΜ",[9]; 10μΜ,1.1%
same,"Cell viability in kinase inhibitor library screening, IGR37 XP, 1μΜ","[9]; 1μΜ, in %",7.6
